Measured values taken from patent EP0075104A2, “Cephalosporin derivatives, process for their preparation, pharmaceutical compositions containing them and intermediates” (F. HOFFMANN-LA ROCHE & CO. Aktiengesellschaft, priority 1981, dated 1983).

Experiments:
Klebsiella pneumoniae = assay: Oral curative dose (CD50) in infected mice, Klebsiella pneumoniae; type: in vivo; settings: Maus, p.o., Erreger Klebsiella pneumoniae, dose at which 50% of the tested mice survive
Excerpt: (§1) Die orale antimikrobielle Wirksamkeit der erwähnten Produkte kann anhand von in-vivo-Versuchen an der Maus nachgewiesen werden. Im nachstehenden bedeutet die kurative Dosis (CD50, p.o., mg/kg) diejenige perorale Dosis, bei der 50% der getesteten Mäuse überleben.
(§2) Ergebnis (CD50, p.o. mg/kg)

Serratia marcescens = assay: Oral curative dose (CD50) in infected mice, Serratia marcescens; type: in vivo; settings: Maus, p.o., Erreger Serratia marcescens, dose at which 50% of the tested mice survive
Excerpt: as §1, §2

Streptococcus pyogenes = assay: Oral curative dose (CD50) in infected mice, Streptococcus pyogenes; type: in vivo; settings: Maus, p.o., Erreger Streptococcus pyogenes, dose at which 50% of the tested mice survive
Excerpt: as §1, §2

Escherichia coli = assay: Oral curative dose (CD50) in infected mice, Escherichia coli; type: in vivo; settings: Maus, p.o., Erreger Escherichia coli, dose at which 50% of the tested mice survive
Excerpt: as §1, §2

in vivo = settings: mouse, po

## CO/N=C(\C(=O)N[C@@H]1C(=O)N2C(C(=O)OCOC(=O)C(C)(C)C)=C(CSc3nc(C(=O)OC)n(C(C(=O)OCOC(=O)C(C)(C)C)c4ccccc4)n3)CS[C@H]12)c1csc(N)n1 (stereo partly drawn) [Produkt B, Methylen-(6R,7R)-7-C(Z)-2-(2-Amino-4-thiazolyl)-2-(methoxyimino)-acetamido]-3-[[[5-(methoxycarbonyl)-1-[(DL)-α-[[(pivaloyloxy)-methoxy]carbonyl]benzyl]-1H-1,2,4-triazol-3-yl]thio]methyl]-8-oxo-5-thia-1-azabicyclo-[4.2.0]oct-2-en-2-carboxylat-pivalat]
Klebsiella pneumoniae
  ED50: > 25 mg/kg
Serratia marcescens
  ED50: > 25 mg/kg
Streptococcus pyogenes
  ED50: > 6 mg/kg
Escherichia coli
  ED50: 5.5 mg/kg

## CO/N=C(\C(=O)N[C@@H]1C(=O)N2C(C(=O)OCOC(=O)C(C)(C)C)=C(CSc3nnc(C(=O)OC)n3C)CS[C@H]12)c1csc(N)n1 [Produkt A, Methylen-(6R,7R)-7-[(Z)-2-(2-Amino-4-thiazolyl)-2-(methoxyimino)-acetamido]-3-[[[5-(methoxycarbonyl)-4-methyl-4H-1,2,4-triazol-3-yl]thio]methyl]-8-oxo-5-thia-l-azabicyclo-[4.2.0]oct-2-en-2-carboxylat-pivalat]
Klebsiella pneumoniae
  ED50: 4.4 mg/kg
Streptococcus pyogenes
  ED50: 1.8 mg/kg
Escherichia coli
  ED50: 0.11 mg/kg
In vivo
  LD50 at 24 h: > 5000 mg/kg

## C=CCn1c(SCC2=C(C(=O)OCOC(=O)C(C)(C)C)N3C(=O)[C@@H](NC(=O)/C(=N\OC)c4csc(N)n4)[C@H]3SC2)nnc1C(=O)OC [Produkt D]
Klebsiella pneumoniae
  ED50: > 12 mg/kg
Serratia marcescens
  ED50: 3.6 mg/kg
Streptococcus pyogenes
  ED50: 1.3 mg/kg
Escherichia coli
  ED50: 0.11 mg/kg
In vivo
  LD50 at 24 h: > 5000 mg/kg

## CO/N=C(\C(=O)N[C@@H]1C(=O)N2C(C(=O)OCOC(=O)C(C)(C)C)=C(CSc3nc(C(=O)OC)n(-c4ccccc4)n3)CS[C@H]12)c1csc(N)n1 [Produkt C, Methylen-(6R,7R)-7-[(Z)-2-(2-Amino-4-thiazolyl)-2-(methoxyimino)-acetamido]3-[[[5-(methoxycarbonyl)-1-phenyl-lH-1,2,4-triazol-3-yl]thio]methyl]-8-oxo-5-thia-1-azabicyclo-[4.2.0]oct-2-en-2-carboxylat-pivalat]
Klebsiella pneumoniae
  ED50: > 12 mg/kg
Serratia marcescens
  ED50: > 25 mg/kg
Streptococcus pyogenes
  ED50: 2.4 mg/kg
Escherichia coli
  ED50: 1.8 mg/kg
In vivo
  LD50 at 24 h: > 5000 mg/kg

## CCCCn1c(SCC2=C(C(=O)OCOC(=O)C(C)(C)C)N3C(=O)[C@@H](NC(=O)/C(=N\OC)c4csc(N)n4)[C@H]3SC2)nnc1C(=O)OC [Produkt E, Methylen-(6R,7R)-[(Z)-(2-Amino-4-thiazolyl)-2-(methoxyimino)-acetamido]-3-[[[4-(n-butyl)-5-(methoxycarbonyl)-4H-1,2,4-triazol-3-yl]-thio]methyl]-8-oxo-5-thia-1-azabicyclo[4.2.0]-oct-2-en-2-carboxylat-pivalat]
Klebsiella pneumoniae
  ED50: > 12 mg/kg
Serratia marcescens
  ED50: 37 mg/kg
Streptococcus pyogenes
  ED50: 3.5 mg/kg
Escherichia coli
  ED50: 1.1 mg/kg
